Results: ChEMBL document CHEMBL1159030, “Plant anticancer agents, L. cytotoxic triterpenes from Sandoricum koetjape stems” (1992)
≈ marks a conversion by molar mass, not a printed value. Calls of active or inactive are those of the source. The calls are words filed in the database; no cut-off is given here.

Columns and labels:
HT-1080 = assay: Cytotoxicity against human HT1080 cells; assay type: functional; details: read-out: ED50 (the source's name)
[1] = Cytotoxicity against human vinblastine-resistant KBV1 cells; assay type: functional; details: KB-V1, read-out: ED50 (the source's name)
ASK = assay: Antimitotic activity in rat ASK cells at 0.32 to 20 ug/mL; assay type: functional, cell-based
[2] = Cytotoxicity against human BC1 cells; assay type: functional; details: read-out: ED50 (the source's name)
A-431 = assay: Cytotoxicity against human A431 cells; assay type: functional; details: read-out: ED50 (the source's name)
SK-MEL-2 = assay: Cytotoxicity against human SK-MEL-2 cells; assay type: functional; details: read-out: ED50 (the source's name)
ZR-75-1 = assay: Cytotoxicity against human ZR-75-1 cells; assay type: functional; details: read-out: ED50 (the source's name)
KB = assay: Cytotoxicity against human KB cells; assay type: functional; details: read-out: ED50 (the source's name)
P388 = assay: Cytotoxicity against mouse P388 cells; assay type: functional; details: read-out: ED50 (the source's name)
Lu1 = assay: Cytotoxicity against human Lu1 cells; assay type: functional; details: read-out: ED50 (the source's name)
Col2 = assay: Cytotoxicity against human Col2 cells; assay type: functional; details: read-out: ED50 (the source's name)
LNCaP = assay: Cytotoxicity against human LNCAP cells; assay type: functional; details: read-out: ED50 (the source's name)

C=C1CC[C@@H]2[C@H]([C@H]3[C@@H](C)CC[C@@H]13)C2(C)C
EC50 (HT-1080): > 20 µg/mL
EC50 [1]: > 20 µg/mL
Activity (ASK): inactive
EC50 [2]: > 20 µg/mL
EC50 (A-431): > 20 µg/mL
EC50 (SK-MEL-2): > 20 µg/mL
EC50 (ZR-75-1): > 20 µg/mL
EC50 (KB): > 20 µg/mL
EC50 (P388): > 20 µg/mL
EC50 (Lu1): > 20 µg/mL
EC50 (Col2): > 20 µg/mL
EC50 (LNCaP): > 20 µg/mL

C=C1CC[C@@H]2[C@H]([C@H]3[C@H]1CC[C@]3(C)O)C2(C)C [SPATHULENOL]
EC50 (HT-1080): > 20 µg/mL
EC50 [1]: > 20 µg/mL
Activity (ASK): inactive
EC50 [2]: > 20 µg/mL
EC50 (A-431): > 20 µg/mL
EC50 (SK-MEL-2): > 20 µg/mL
EC50 (ZR-75-1): > 20 µg/mL
EC50 (KB): > 20 µg/mL
EC50 (P388): > 20 µg/mL
EC50 (Lu1): > 20 µg/mL
EC50 (Col2): > 20 µg/mL
EC50 (LNCaP): > 20 µg/mL

C=C1CC[C@@H]2O[C@]2(C)CC[C@@H]2[C@@H]1CC2(C)C
EC50 (HT-1080): > 20 µg/mL
EC50 [1]: > 20 µg/mL
Activity (ASK): inactive
EC50 [2]: > 20 µg/mL
EC50 (A-431): > 20 µg/mL
EC50 (SK-MEL-2): > 20 µg/mL
EC50 (ZR-75-1): > 20 µg/mL
EC50 (KB): > 20 µg/mL
EC50 (P388): > 20 µg/mL
EC50 (Lu1): > 20 µg/mL
EC50 (Col2): > 20 µg/mL
EC50 (LNCaP): > 20 µg/mL

C=C(C)[C@@H]1CC[C@]2(C)[C@H](CC=C3[C@@H]4C[C@@](C)(C(=O)O)CC[C@]4(C)CC[C@]32C)[C@@]1(C)CCC(=O)O [KOETJAPIC ACID]
EC50 (HT-1080): > 20 µg/mL
EC50 [1]: > 20 µg/mL
Activity (ASK): inactive
EC50 [2]: > 20 µg/mL
EC50 (A-431): > 20 µg/mL
EC50 (SK-MEL-2): > 20 µg/mL
EC50 (ZR-75-1): > 20 µg/mL
EC50 (KB): > 20 µg/mL
EC50 (P388): > 20 µg/mL
EC50 (Lu1): > 20 µg/mL
EC50 (Col2): > 20 µg/mL
EC50 (LNCaP): > 20 µg/mL

CC1(C)[C@H](O)CC[C@]2(C)[C@H]3CC=C4[C@@H]5C[C@](C)(C(=O)O)CC[C@]5(C)CC[C@@]4(C)[C@]3(C)CC[C@@H]12 [KATONIC ACID]
EC50 (HT-1080): 19 µg/mL (≈ 41.6 µM)
EC50 [1]: 15 µg/mL (≈ 32.8 µM)
EC50 [2]: 7.8 µg/mL (≈ 17.1 µM)
EC50 (A-431): 12 µg/mL (≈ 26.3 µM)
EC50 (SK-MEL-2): 12 µg/mL (≈ 26.3 µM)
EC50 (ZR-75-1): 2.2 µg/mL (≈ 4.82 µM)
EC50 (KB): 8.3 µg/mL (≈ 18.2 µM)
EC50 (P388): 0.11 µg/mL (≈ 0.241 µM)
EC50 (Lu1): 11 µg/mL (≈ 24.1 µM)
EC50 (Col2): > 20 µg/mL
EC50 (LNCaP): 10 µg/mL (≈ 21.9 µM)

CC1(C)C(=O)CC[C@]2(C)[C@H]3CC=C4[C@@H]5C[C@](C)(C(=O)O)CC[C@]5(C)CC[C@@]4(C)[C@]3(C)CC[C@@H]12
EC50 (HT-1080): > 20 µg/mL
EC50 [1]: 8.5 µg/mL (≈ 18.7 µM)
EC50 [2]: > 20 µg/mL
EC50 (A-431): > 20 µg/mL
EC50 (SK-MEL-2): 12 µg/mL (≈ 26.4 µM)
EC50 (ZR-75-1): 5.2 µg/mL (≈ 11.4 µM)
EC50 (KB): 4.9 µg/mL (≈ 10.8 µM)
EC50 (P388): 0.61 µg/mL (≈ 1.34 µM)
EC50 (Lu1): 10 µg/mL (≈ 22 µM)
EC50 (Col2): > 20 µg/mL
EC50 (LNCaP): 10 µg/mL (≈ 22 µM)
